Data as given in US6403765B1, “Truncated Apaf-1 and methods of use thereof” (Thomas Jefferson University, priority 1998, dated 2002).
“Also recorded” adds a separate entry of the source.

How the values were obtained:
[1] = system: procaspase-7; assay: Cytochrome c/dATP-dependent processing of procaspase-7 in 293 cellular S100 extract; type: biochemical; conditions: 35S-labeled procaspase-7, 293 S100 extract, FIG. 8
Protocol: (§1) In FIG. 8, ^35S-labeled procaspase-3, -6 or -7 were incubated with S100 extracts from 293 cells in the presence or absence of cytochrome c/dATP or DEVD-CHO, or both and analyzed by SDS-PAGE followed by autoradiography. However, when DEVD-CHO was included, processing of procaspase-6 (lane 6), but not procaspase-3 (lane 3) or -7 (lane 9) was inhibited. […] Also, since caspase-7 cannot process procaspase-6 (Srinivasula et al., J. Biol. Chem. 271:27099-27106, 1996), caspase-3 is the one responsible for processing of procaspase-6 in the cytochrome c plus dATP-dependent pathway.

[2] = system: procaspase-9; assay: Cytochrome c/dATP-dependent processing of procaspase-9 in 293 cellular S100 extract; type: biochemical; conditions: 293 S100 extract, cytochrome c plus dATP
Protocol: To study processing of procaspase-9 in the cytochrome c/Apaf-1-dependent pathway, WT and the Asp to Ala mutants of procaspase-9 were incubated with a cellular S100 extract in the presence or absence of cytochrome c and dATP. […] Samples were then analyzed by SDS-PAGE and autoradiography.
(§2) To confirm this, a time course analysis of procaspase-9 and procaspase-3 processing was performed in cellular S100 extracts from 293 and MCF-7 cells. […] At the indicated times the reactions were stopped and then analyzed by SDS-PAGE and autoradiography (procaspase-9 panels) or Western blot analysis using anti-caspase-3 p20 polyclonal antibody (procaspase-3 panels). Small arrows indicate a non-specific band detected by the anti-caspase-3 antibody.
(§3) In FIG. 18, 293 cellular S100 extracts supplemented with ^35S-labeled procaspase-9 (upper panel) or procaspase-3 (lower panel) were incubated with (lanes 3-7) or without (lane 2) cytochrome c plus dATP in the presence of increasing amounts of purified recombinant procaspase-9-C287A mutant for 1 hour at 30° C. and then analyzed by SDS-PAGE and autoradiography. […] Consequently, the Apaf-1/caspase-9 pathway appears to be a central apoptotic pathway, on which most apoptotic signals converge.

[3] = system: procaspase-6; assay: Cytochrome c/dATP-dependent processing of procaspase-6 in 293 cellular S100 extract; type: biochemical; conditions: 35S-labeled procaspase-6, 293 S100 extract, FIG. 8
Protocol: as §1

[4] = system: procaspase-3; assay: Cytochrome c/dATP-dependent processing of procaspase-3 in 293 cellular S100 extract; type: biochemical; conditions: cytochrome c/dATP
Protocol: as §2, §1, §3

[5] = biological target: T1, T7-tagged Apaf-530 (human, UniProt O14727 1-541); assay: co-immunoprecipitation from co-transfected 293 cells: anti-Flag IP, anti-T7 immunoblot
T1 construct: Expressed in co-transfected 293 cells; also called T7-Apaf-530
T1 sequence: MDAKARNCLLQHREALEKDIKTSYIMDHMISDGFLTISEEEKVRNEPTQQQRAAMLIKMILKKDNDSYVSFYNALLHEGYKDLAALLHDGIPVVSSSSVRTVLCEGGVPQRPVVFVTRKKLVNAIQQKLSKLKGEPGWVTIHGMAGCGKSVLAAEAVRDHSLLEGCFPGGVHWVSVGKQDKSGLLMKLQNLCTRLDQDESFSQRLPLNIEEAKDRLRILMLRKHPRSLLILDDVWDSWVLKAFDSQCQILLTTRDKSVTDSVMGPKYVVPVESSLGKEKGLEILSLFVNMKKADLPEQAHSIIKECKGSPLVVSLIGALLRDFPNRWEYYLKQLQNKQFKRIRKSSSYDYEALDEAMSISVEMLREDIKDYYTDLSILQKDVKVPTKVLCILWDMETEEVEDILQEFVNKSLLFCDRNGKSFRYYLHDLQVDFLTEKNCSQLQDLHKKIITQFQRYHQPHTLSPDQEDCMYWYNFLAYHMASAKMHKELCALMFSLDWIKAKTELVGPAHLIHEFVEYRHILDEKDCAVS
Protocol: (§4) The immunoprecipitates were analyzed by Western blotting with an anti-T7 antibody.
(§5) After 36 hours, extracts were prepared and immunoprecipitated with a monoclonal antibody to the Flag epitope. The immunoprecipitates (upper panel) were analyzed by SDS-PAGE and immunoblotted with a horseradish peroxides-conjugated T7 antibody.
(§6) In vivo interaction experiments between Apaf-1 variants and Bcl-x_L were performed. […] After 36 hours, extracts were prepared and immunoprecipitated with a monoclonal antibody to the Flag epitope. The immunoprecipitates (FIG. 16, upper panel) were analyzed by SDS-PAGE and immunoblotted with a horseradish peroxidase-conjugated T7 antibody.

[6] = biological target: T2, T7-tagged Bcl-xL (UniProt Q07817 1-233); assay: as above
T2 construct: Expressed in co-transfected 293 cells
T2 sequence (Q07817 whole entry): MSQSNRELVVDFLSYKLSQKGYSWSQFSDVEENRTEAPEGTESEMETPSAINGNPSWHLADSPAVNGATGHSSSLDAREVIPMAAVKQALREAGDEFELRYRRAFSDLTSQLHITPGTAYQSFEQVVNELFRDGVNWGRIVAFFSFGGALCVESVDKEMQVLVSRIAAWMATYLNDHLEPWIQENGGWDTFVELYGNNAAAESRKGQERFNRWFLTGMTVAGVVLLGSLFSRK
Protocol: as §4, §5, §6

[7] = biological target: T3, Apaf-1 (endogenous, in 293 cellular S100 extract, with cytochrome c plus dATP)
T3 chain: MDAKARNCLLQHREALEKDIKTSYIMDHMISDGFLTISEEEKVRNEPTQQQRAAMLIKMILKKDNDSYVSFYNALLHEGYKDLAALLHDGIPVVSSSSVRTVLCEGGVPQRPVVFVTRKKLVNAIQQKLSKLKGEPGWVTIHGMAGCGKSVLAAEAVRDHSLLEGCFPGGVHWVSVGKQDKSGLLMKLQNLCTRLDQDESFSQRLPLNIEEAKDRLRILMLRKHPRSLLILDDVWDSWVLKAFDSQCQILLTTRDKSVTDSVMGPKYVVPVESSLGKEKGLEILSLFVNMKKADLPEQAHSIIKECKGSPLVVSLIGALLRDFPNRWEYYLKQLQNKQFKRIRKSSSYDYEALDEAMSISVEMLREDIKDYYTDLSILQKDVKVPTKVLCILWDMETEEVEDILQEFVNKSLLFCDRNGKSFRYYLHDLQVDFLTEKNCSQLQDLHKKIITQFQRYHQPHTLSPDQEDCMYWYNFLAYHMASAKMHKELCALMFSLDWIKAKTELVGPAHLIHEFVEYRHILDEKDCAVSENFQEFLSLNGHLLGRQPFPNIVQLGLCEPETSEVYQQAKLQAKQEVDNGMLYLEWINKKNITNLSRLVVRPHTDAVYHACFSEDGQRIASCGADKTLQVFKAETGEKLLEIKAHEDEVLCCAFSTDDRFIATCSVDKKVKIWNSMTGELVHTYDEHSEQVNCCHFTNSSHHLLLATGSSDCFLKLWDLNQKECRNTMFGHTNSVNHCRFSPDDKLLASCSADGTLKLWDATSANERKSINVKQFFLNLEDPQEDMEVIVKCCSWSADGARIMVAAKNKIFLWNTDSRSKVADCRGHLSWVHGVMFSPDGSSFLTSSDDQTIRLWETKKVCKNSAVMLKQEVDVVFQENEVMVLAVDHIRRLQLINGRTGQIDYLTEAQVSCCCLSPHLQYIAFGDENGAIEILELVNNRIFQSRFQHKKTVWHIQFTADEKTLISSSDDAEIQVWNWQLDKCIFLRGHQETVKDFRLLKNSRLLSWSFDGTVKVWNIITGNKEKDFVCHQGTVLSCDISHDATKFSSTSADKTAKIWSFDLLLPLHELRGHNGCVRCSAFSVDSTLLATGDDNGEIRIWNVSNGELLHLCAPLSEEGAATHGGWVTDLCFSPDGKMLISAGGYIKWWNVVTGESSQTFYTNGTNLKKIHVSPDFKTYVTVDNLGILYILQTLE

[8] = biological target: T4, recombinant Apaf-530 (Ni2+-affinity purified, bacterially expressed, C-terminal His6 tag)
T4 chain: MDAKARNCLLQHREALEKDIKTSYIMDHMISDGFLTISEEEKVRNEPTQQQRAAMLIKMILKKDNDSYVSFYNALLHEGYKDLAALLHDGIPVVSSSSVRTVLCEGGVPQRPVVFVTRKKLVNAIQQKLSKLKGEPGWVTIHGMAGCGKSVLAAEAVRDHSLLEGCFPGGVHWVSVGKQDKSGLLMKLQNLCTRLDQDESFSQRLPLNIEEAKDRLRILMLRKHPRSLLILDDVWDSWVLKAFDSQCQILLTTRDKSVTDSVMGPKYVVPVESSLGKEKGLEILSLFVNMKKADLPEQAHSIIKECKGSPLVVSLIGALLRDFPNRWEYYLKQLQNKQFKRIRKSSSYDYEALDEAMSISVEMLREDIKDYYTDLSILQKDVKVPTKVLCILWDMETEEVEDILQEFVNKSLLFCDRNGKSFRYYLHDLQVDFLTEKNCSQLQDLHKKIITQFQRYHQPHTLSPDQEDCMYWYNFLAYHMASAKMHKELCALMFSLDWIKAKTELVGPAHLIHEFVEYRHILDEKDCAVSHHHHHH

[9] = 293 S100 extract, Western blot, FIG. 5

Molecule: Asp-Glu-Val-Asp-aldehyde [DEVD-CHO]
- inhibition of processing of procaspase-7 [1]: not
- inhibition of procaspase-9 processing at Asp315 (autocatalytic generation of p35 fragment) [2]: not and did not block
- inhibition of procaspase-9 processing at Asp330 (generation of p37 fragment) [2]: sensitive to inhibition; also recorded: blocked
- inhibition of processing of procaspase-6 [3]: inhibited
- inhibition of processing of procaspase-3 ([4]; 35S-labeled procaspase-3, 293 S100 extract, FIG. 8): not
- effect on processing of procaspase-3 [4, 9]: slightly attenuated
- inhibition of autoconversion of caspase-3-p20 to p19 [4, 9]: blocked

B1: Flag-tagged Apaf-97 (other, not shown: small tags and cut ends)
chain: MDAKARNCLLQHREALEKDIKTSYIMDHMISDGFLTISEEEKVRNEPTQQQRAAMLIKMILKKDNDSYVSFYNALLHEGYKDLAALLHDGIPVVSSS
notes: Expressed in co-transfected 293 cells; also called Flag-Apaf-97
- binding result [5]: no binding
- binding result [6]: no binding

B2: purified recombinant procaspase-9-C287A mutant (protein)
chain: MDEADRRLLRRCRLRLVEELQVDQLWDALLSRELFRPHMIEDIQRAGSGSRRDQARQLIIDLETRGSQALPLFISCLEDTGQDMLASFLRTNRQAAKLSKPTLENLTPVVLRPEIRKPEVLRPETPRPVDIGSGGFGDVGALESLRGNADLAYILSMEPCGHCLIINNVNFCRESGLRTRTGSNIDCEKLRRRFSSLHFMVEVKGDLTAKKMVLALLELAQQDHGALDCCVVVILSHGCQASHLQFPGAVYGTDGCPVSVEKIVNIFNGTSCPSLGGKPKLFFIQAAGGEQKDHGFEVASTSPEDESPGSNPEPDATPFQEGLRTFDQLDAISSLPTPSDIFVSYSTFPGFVSWRDPKSGSWYVETLDDIFEQWAHSEDLQSLLLRVANAVSVKGIYKQMPGCFNFLRKKLFFKTS
- cytochrome c/dATP-induced activation of procaspase-9 and procaspase-3 in the 293 S100 extract [7]: able to attenuate cytochrome c/dATP-induced activation of procaspase-9 and procaspase-3 in the 293 S100 extract in a dose-dependent manner
- Apaf-530-induced activation of procaspase-9 in the in vitro reconstituted system [8]: A similar result was also obtained with the Apaf-530-induced activation of procaspase-9 in the in vitro reconstituted system (data not shown)
